From US20200002377A1, “COMPOUNDS USEFUL FOR THE TREATMENT AND/OR CARE OF THE SKIN, HAIR, NAILS AND/OR MUCOUS MEMBRANES” (LUBRIZOL ADVANCED MATERIALS, INC., priority 2016, published 2020)
Residues, ends and D or L forms follow the SMILES beside them. *: point of attachment. Palmitoyl = CCCCCCCCCCCCCCCC(=O)*; NHhexadecyl = CCCCCCCCCCCCCCCCN*; NHHex = CCCCCCN*

Tests used:
[1] = tested on: Staphylococcus epidermidis; assay: Adherence of Staphylococcus epidermidis in keratinocytes (HaCaT) in competition with S. aureus bioparticles; assay type: cell-based; conditions: 50 μg/ml, 24 h, basal = 0
Method: After that treatment, cells are washed with phosphate-buffered saline (PBS, Sigma) and are then incubated with a solution of Staphylococcus epidermidis (ATCC®12228™, Culture Collections) treated with green-fluorescence calcein AM (Life technologic) and Alexa Fluor 594™ Bioparticles Staphylococcus aureus (ThermoFisher) in PBS for 30 minutes at 37° C. and protected from light. At the end of the incubation period, cells are washed with PBS and fixed in 4% (v/v) paraformaldehyde (PFA, Sigma) for 30 minutes. After rinsing with PBS, the nuclei are stained with Hoechst 33342, trihydrochloride trihydrate (ThermoFisher) in PBS for 10 minutes before analysis.
Cellular imaging is performed by fluorescence microscopy using the Operetta® High Content Imaging System (PerkinElmer). From each fluorescence image, Staphylococcus epidermidis is quantified as a number of spots and normalized against the number of keratinocyte nuclei and the total bacteria number (understood as the addition of detected S. epidermidis spots and S. aureus bioparticles). Each value obtained is normalized respect to basal conditions (non-treated keratinocytes). An image is taken in three different fields per well. 12 representative images from each condition are analyzed with Harmony software (PerkinElmer).
The normalized percentage of Staphylococcus epidermidis respect to basal conditions in treated keratinocytes is represented in Table 17.

[2] = tested on: Nuclear Factor Kappa B subunit 1 (NFKB1); assay: Innate immune response gene expression in HEKa, real time PCR array; assay type: cell-based, human; conditions: 50 μg/ml, 24 h
Method: HEKa cells (Life Technologies) are seeded at 6.0×10^5 cells/well in 6-well plates and incubated in culture medium Epillfe™ with defined Growth Supplement (EDGS, Life Technologies), at 37° C. in a water-saturated atmosphere of 95% air and 5% CO2. After 24 hours of incubation under these conditions, medium is removed and cells are incubated with 50 μg/ml (w/v) of a peptide of the invention (see Table 16) in fresh culture medium keeping two wells where HEKa cells are incubated with medium only (basal conditions) at 37° C. and 5% CO2.
After 24 h of incubation, the cells are lysed directly in the wells following the protocol described on the RNeasy™ Mini kit (Qiagen) according to the manufacturer's protocol. The lysed cells are homogenized and the RNases are inactivated. The genomic DNA is removed from the samples by using gDNA Eliminator spin columns (Qiagen). Then the samples are passed through special RNA binding columns (Qiagen) and, after several microcentrifugation washes to eliminate contaminants and impurities, the purified RNA is eluted with 50 μl of ultrapure water. Quantification and analysis of purity of RNA samples are performed after RNA elution with a biophotometer (Eppendorf). 1 μg of high-quality RNA is retrotranscribed with iScript™ advanced (BioRad) in a final volume of 20 μl·Complete reaction mix is incubated in a thermal cycler (Eppendorf) at 42° C. for 30 minutes, and the reactions are stopped at 85° C. for 5 minutes. Complementary DNA is amplified by qPCR in a real-time PCR thermocycler (BioRad) using SYBR®Green supermix (BioRad) and a customized plate for use with SYBR®Green (BioRad). SYBR®Green binds to double-stranded DNA molecules and emits fluorescence which is quantified and is proportional to the amount of the product in the PCR reaction. Cycling conditions in BioRad CFX96™ instrument are 95° C. for 3 minutes, followed by 40 cycles of denaturing at 95° C. for 5 seconds, annealing and elongation at 60° C. for 30 seconds. GAPDH (Glyceraldehyde 3-phosphate dehydrogenase), TBP (TATA box binding protein) and HRPT1 (hypoxanthine phosphoribosyltransferase 1) are used as endogenous controls. Fold change relative to the expression of the sample genes and reference genes is calculated using normalized expression (ΔΔ(Ct)) method with default threshold values using CFX Manager Software (BioRad).
Genes analyzed are Chemokine (C-C motif) Ligand 5 (CCL5), Myeloid Differentiation primary response gene 88 (MyD88), Nuclear Factor Kappa B subunit 1 (NFKB1) and interferon Regulatory Factor 3 (IRF3).

Row | Molecule | S. epidermidis (%), normalized percentage respect to basal conditions [1] [%] | NFKB1 fold induction respect to basal conditions [2]
1 | Ac-EEMQRRT-NH2 [PEP-41, Ac-Glu-Glu-Met-Gln-Arg-Arg-Thr-NH2] | 35.69 | 2.71
2 | CCCCCCNC(=O)[C@H](CC(=O)O)NC(=O)[C@H](C)NC(=O)[C@H](CCCNC(=N)N)NC(=O)[C@H](CCCNC(=N)N)NC(=O)[C@H](CCC(N)=O)NC(=O)[C@H](CCSC)NC(=O)[C@H](CCC(=O)O)NC(=O)[C@H](CCC(=O)O)NC(C)=O [PEP-34, Ac-Glu-Glu-Met-Gln-Arg-Arg-Ala-Asp-NHC6H13] (Ac-EEMQRRAD-NHHex) | 61.59 | 2.59
3 | Ac-EEMNRR-NH2 [PEP-48, Ac-Glu-Glu-Met-Asn-Arg-Arg-NH2] | 18.02 | 1.48
4 | CCCCCCNC(=O)[C@H](CCCNC(=N)N)NC(=O)[C@H](CCCNC(=N)N)NC(=O)[C@H](CCC(N)=O)NC(=O)[C@H](CCSC)NC(=O)[C@H](CCC(=O)O)NC(=O)[C@H](CCC(=O)O)NC(C)=O [PEP-64, Ac-Glu-Glu-Met-Gln-Arg-Arg-NHC6H13] (Ac-EEMQRR-NHHex) |  | 1.75
5 | Ac-EEMERRAD-NH2 [PEP-11, Ac-Glu-Glu-Met-Glu-Arg-Arg-Ala-Asp-NH2] | 4.24 | 2.63
6 | CCCCCCCCCCCCCCCC(=O)N[C@@H](CCC(=O)O)C(=O)N[C@@H](CCC(=O)O)C(=O)N[C@@H](CCSC)C(=O)N[C@@H](CCC(N)=O)C(=O)N[C@@H](CCCNC(=N)N)C(=O)N[C@@H](CCCNC(=N)N)C(N)=O [PEP-6, Palm-Glu-Glu-Met-Gln-Arg-Arg-NH2] (Palmitoyl-EEMQRR-NH2) | 29.75 | 2.62
7 | Ac-EEIERR-NH2 [PEP-55, Ac-Glu-Glu-Ile-Glu-Arg-Arg-NH2] | 2.41 | 3.39
8 | Ac-EDMQRR-NH2 [PEP-49, Ac-Glu-Asp-Met-Gln-Arg-Arg-NH2] | 5.86 | 1.55
9 | H-Glu-Glu-Met-Gln-Arg-Arg-NHC16H33 (H-EEMQRR-NHhexadecyl) [PEP-67] | 14.91 | 
10 | Ac-EEMQRRV-NH2 [PEP-44, Ac-Glu-Glu-Met-Gln-Arg-Arg-Val-NH2] |  | 1.24
11 | CCCCCCCCCCCCCCCC(=O)N[C@@H](CCC(=O)O)C(=O)N[C@@H](CCC(=O)O)C(=O)N[C@@H](CCSC)C(=O)N[C@@H](CCC(N)=O)C(=O)N[C@@H](CCCNC(=N)N)C(=O)N[C@@H](Cc1c[nH]cn1)C(N)=O [PEP-58, Palm-Glu-Glu-Met-Gln-Arg-His-NH2] (Palmitoyl-EEMQRH-NH2) |  | 1.87
12 | H-EEMQRRAN-NH2 [PEP-25, H-Glu-Glu-Met-Gln-Arg-Arg-Ala-Asn-NH2] |  | 2.31
13 | CCCCCCNC(=O)[C@H](CCCNC(=N)N)NC(=O)[C@H](CCCNC(=N)N)NC(=O)[C@H](CCC(N)=O)NC(=O)[C@H](CCSC)NC(=O)[C@H](CCC(=O)O)NC(=O)[C@@H](N)CCC(=O)O [PEP-65, H-Glu-Glu-Met-Gln-Arg-Arg-NCH6H13] (H-EEMQRR-NHHex) |  | 2.41
14 | Ac-Glu-Glu-Leu-Gln-Arg-Arg-NH2 (Ac-EELQRR-NH2) [PEP-66] | 45.38 | 
15 | Ac-EEMQRRAE-OH [PEP-30, Ac-Glu-Glu-Met-Gln-Arg-Arg-Ala-Glu-OH] |  | 2.53
16 | Ac-EELQRR-OH [PEP-63, Ac-Glu-Glu-Leu-Gln-Arg-Arg-OH] |  | 1.50
17 | Ac-QEMQRR-NH2 [PEP-52, Ac-Gln-Glu-Met-Gln-Arg-Arg-NH2] |  | 2.57
18 | Ac-EEMQRH-NH2 [PEP-53, Ac-Glu-Glu-Met-Gln-Arg-His-NH2] |  | 3.37
